ChEMBL document CHEMBL3046061, “Quinolinedione nucleus as a novel scaffold for A1 and A2A adenosine receptor antagonists” (Med Chem Res, 2008)

Tests used:
[1] = target: T1, Adenosine receptor A3 (Homo sapiens) (UniProt P0DMS8); assay: Displacement of [125I]AB-MECA from Homo sapiens (human) adenosine A3 receptor expressed in CHO cells at 10 uM; format: cell-based
T1 sequence (whole entry): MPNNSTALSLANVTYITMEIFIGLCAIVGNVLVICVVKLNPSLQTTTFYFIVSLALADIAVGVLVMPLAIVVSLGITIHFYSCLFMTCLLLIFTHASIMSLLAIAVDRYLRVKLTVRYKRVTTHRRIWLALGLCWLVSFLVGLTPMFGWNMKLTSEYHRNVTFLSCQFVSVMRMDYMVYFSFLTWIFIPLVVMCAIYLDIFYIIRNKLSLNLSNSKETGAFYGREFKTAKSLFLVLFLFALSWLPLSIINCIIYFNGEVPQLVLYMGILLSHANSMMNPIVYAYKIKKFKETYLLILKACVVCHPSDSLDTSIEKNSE

[2] = target: T2, Adenosine receptor A1 (Bos taurus) (UniProt P28190); assay: Displacement of [3H]DPCPX from adenosine A1 receptor in Bos taurus (bovine) cortical membrane at 10 uM
T2 sequence (whole entry): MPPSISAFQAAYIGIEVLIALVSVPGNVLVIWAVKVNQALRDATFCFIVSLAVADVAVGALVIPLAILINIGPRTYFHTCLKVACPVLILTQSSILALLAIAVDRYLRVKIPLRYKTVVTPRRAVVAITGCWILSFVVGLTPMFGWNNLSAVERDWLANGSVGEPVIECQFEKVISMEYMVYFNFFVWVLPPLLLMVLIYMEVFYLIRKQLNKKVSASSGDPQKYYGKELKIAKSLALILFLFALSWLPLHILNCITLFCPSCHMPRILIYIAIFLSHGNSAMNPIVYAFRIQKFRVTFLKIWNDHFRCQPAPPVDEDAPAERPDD

[3] = system: cAMP phosphodiesterase 3 (Cavia porcellus); assay: Inhibition of Cavia porcellus (guinea pig) PDE3 isolated from heart using [3H]cAMP as substrate at 10 uM by two-step method
[4] = system: cAMP phosphodiesterase 3 (Cavia porcellus); assay: Inhibition of Cavia porcellus (guinea pig) PDE3 isolated from heart using [3H]cAMP as substrate at 1 uM by two-step method
[5] = target: T3, Adenosine receptor A1 (Homo sapiens) (UniProt P30542); assay: Displacement of [3H]DPCPX from Homo sapiens (human) adenosine A1 receptor expressed in CHO cells at 10 uM; format: cell-based
T3 sequence (whole entry): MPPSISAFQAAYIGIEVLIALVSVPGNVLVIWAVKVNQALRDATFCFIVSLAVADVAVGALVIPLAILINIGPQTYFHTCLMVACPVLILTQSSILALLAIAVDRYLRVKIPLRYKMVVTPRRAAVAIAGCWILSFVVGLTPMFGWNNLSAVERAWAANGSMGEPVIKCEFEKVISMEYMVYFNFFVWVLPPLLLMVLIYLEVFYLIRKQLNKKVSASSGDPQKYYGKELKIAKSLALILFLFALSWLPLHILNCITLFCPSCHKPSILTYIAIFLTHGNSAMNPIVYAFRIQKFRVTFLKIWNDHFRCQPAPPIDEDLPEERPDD

Adenosine receptor A2a [6] = target: T4, Adenosine receptor A2a (Homo sapiens, UniProt P29274); assay: Displacement of [3H]CGS21680 from Homo sapiens (human) adenosine A2A receptor expressed in CHO cells at 10 uM; format: cell-based
[7] = target: Uncharacterized protein (Bos taurus) (UniProt E1BKU0); assay: Displacement of [3H]CGS21680 from adenosine A2A receptor in Bos taurus (bovine) cortical membrane at 10 uM
[8] = system: cAMP phosphodiesterase 3 (Cavia porcellus); assay: Inhibition of Cavia porcellus (guinea pig) PDE3 isolated from heart using [3H]cAMP as substrate at 50 uM by two-step method
[9] = system: cAMP phosphodiesterase 3 (Cavia porcellus); assay: Inhibition of Cavia porcellus (guinea pig) PDE3 isolated from heart using [3H]cAMP as substrate at 100 uM by two-step method
Adenosine receptor A2a [10] = target: T4, Adenosine receptor A2a; assay: Displacement of [3H]CGS21680 from Homo sapiens (human) adenosine A2A receptor expressed in CHO cells; format: cell-based
Uncharacterized protein = Uncharacterized protein (Bos taurus, UniProt E1BKU0); assay: Displacement of [3H]CGS21680 from adenosine A2A receptor in Bos taurus (bovine) cortical membrane
Adenosine receptor A1 [11] = target: T5, Adenosine receptor A1 (Homo sapiens, UniProt P30542); assay: Displacement of [3H]DPCPX from Homo sapiens (human) adenosine A1 receptor expressed in CHO cells; format: cell-based
T5 sequence (P30542 whole entry): T3 sequence (whole entry)

Adenosine receptor A1 [12] = target: T6, Adenosine receptor A1 (Bos taurus, UniProt P28190); assay: Displacement of [3H]DPCPX from adenosine A1 receptor in Bos taurus (bovine) cortical membrane
T6 sequence (P28190 whole entry): T2 sequence (whole entry)

T4 sequence (P29274 whole entry): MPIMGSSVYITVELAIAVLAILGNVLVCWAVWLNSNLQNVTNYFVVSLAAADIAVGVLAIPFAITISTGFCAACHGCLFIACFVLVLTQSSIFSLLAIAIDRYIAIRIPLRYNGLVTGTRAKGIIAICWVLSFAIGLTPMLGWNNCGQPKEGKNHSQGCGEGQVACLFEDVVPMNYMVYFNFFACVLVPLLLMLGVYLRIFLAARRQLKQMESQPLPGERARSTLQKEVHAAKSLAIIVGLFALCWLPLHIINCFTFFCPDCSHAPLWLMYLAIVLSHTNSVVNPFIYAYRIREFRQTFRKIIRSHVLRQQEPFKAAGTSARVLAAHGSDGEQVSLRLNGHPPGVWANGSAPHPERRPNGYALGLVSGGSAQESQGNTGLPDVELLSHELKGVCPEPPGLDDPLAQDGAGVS
Uncharacterized protein (Bos taurus), sequence (E1BKU0 as listed by the source): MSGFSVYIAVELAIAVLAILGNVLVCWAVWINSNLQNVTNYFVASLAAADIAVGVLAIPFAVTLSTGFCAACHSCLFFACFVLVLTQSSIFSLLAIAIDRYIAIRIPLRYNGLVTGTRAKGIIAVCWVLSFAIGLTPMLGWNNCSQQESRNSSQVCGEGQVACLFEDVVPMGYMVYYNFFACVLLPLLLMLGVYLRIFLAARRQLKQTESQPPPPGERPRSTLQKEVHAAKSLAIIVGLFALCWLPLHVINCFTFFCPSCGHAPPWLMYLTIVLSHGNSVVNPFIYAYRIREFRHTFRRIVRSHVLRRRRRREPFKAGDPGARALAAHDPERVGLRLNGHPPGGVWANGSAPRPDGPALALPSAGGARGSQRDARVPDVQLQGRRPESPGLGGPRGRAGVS
Uncharacterized protein, sequence (E1BKU0 whole entry): as the sequence (E1BKU0 as listed by the source) above

SMILES | inhibition [1] [%] | inhibition [2] [%] | inhibition [3] [%] | inhibition [4] [%] | inhibition [5] [%] | inhibition (Adenosine receptor A2a [6]) [%] | inhibition [7] [%] | inhibition [8] [%] | inhibition [9] [%] | Ki (Adenosine receptor A2a [10]) [µM] | Ki (Uncharacterized protein) [µM] | Ki (Adenosine receptor A1 [11]) [µM] | Ki (Adenosine receptor A1 [12]) [µM]
O=C(c1ccccc1)c1cc(C(=O)c2ccccc2)c(=O)[nH]c1-c1ccccc1 | 2 | 13 | 1.76 | 0 | 2 | 13 | 8 | 5.4 | 9.6 | – | – | – | –
O=C(c1ccccc1)c1cc(S(=O)(=O)c2ccccc2)c(=O)[nH]c1-c1ccccc1 | 0 | 8 | 0 | 0 | 1 | 11 | 8 | 3.5 | 7.53 | – | – | – | –
O=C1CC(c2ccccc2)Cc2[nH]c(=O)c(S(=O)(=O)c3ccccc3)cc21 (centres undefined) | 18 | – | 0 | 0 | – | – | – | 5.7 | 10.4 | 7 | 7.9 | 7.8 | 5.8
CC(C)(C)C(=O)c1cc2c([nH]c1=O)CC(c1ccccc1)CC2=O (centres undefined) | 21 | – | 0.8 | 0 | 11 | – | – | 3.3 | 4.2 | 16 | 15 | – | 5.1
CC(=O)c1cc(S(=O)(=O)c2ccccc2)c(=O)[nH]c1C | 0 | 0 | 1.03 | 0 | – | – | 0 | 3.98 | 8.72 | – | – | – | –
CC(=O)c1cc(C(=O)C(C)(C)C)c(=O)[nH]c1C | 13 | 0 | 1.15 | 0 | – | – | 11 | 2.15 | 8.23 | – | – | – | –

More lines, now with the values ahead:

inhibition [1] [%] | inhibition [2] [%] | inhibition [3] [%] | inhibition [4] [%] | inhibition [5] [%] | inhibition (Adenosine receptor A2a [6]) [%] | inhibition [7] [%] | inhibition [8] [%] | inhibition [9] [%] | Ki (Adenosine receptor A2a [10]) [µM] | Ki (Uncharacterized protein) [µM] | Ki (Adenosine receptor A1 [11]) [µM] | Ki (Adenosine receptor A1 [12]) [µM] | SMILES
0 | 10 | 0 | 0 | 36 | – | 2 | 4.7 | 5.7 | – | – | – | – | O=C1CCCc2[nH]c(=O)c(S(=O)(=O)c3ccccc3)cc21
0 | 0 | 2 | 0 | – | – | 0 | 4.35 | 8.9 | – | – | – | – | CC(=O)c1cc(C(=O)c2ccccc2)c(=O)[nH]c1C
0 | 13 | 2.5 | 0 | 0 | – | 0 | 6.6 | 6.6 | – | – | – | – | CC(C)(C)C(=O)c1cc2c([nH]c1=O)CCCC2=O
0 | 6 | 0 | 0 | – | – | 4 | 4.3 | 6 | – | – | – | – | O=C1CCCc2[nH]c(=O)c(C(=O)c3ccccc3)cc21
0 | – | 5.2 | 0 | 5 | 16 | 0 | 1.7 | 7.8 | – | – | – | 6.5 | O=C1CC(c2ccccc2)Cc2[nH]c(=O)c(C(=O)c3ccccc3)cc21 (centres undefined)
